Molecular target: Complement factor D (Homo sapiens, UniProt P00746)
Assay: Human Factor D Assay: Human Factor D (purified from human serum, Complement Technology, Inc.) at 80 nM final concentration was incubated with test compound at various concentrations for 5 minutes at room temperature in 50 mM Tris, 1M NaCl, pH 7.5. A synthetic substrate Z-L-Lys-SBzl and DTNB (Ellman's reagent) are added to final concentrations of 100 μM each. […] IC50 values are calculated by nonlinear regression of complement Factor D reaction rates as a function of test compound concentration.

Complement factor D, sequence (P00746 whole entry): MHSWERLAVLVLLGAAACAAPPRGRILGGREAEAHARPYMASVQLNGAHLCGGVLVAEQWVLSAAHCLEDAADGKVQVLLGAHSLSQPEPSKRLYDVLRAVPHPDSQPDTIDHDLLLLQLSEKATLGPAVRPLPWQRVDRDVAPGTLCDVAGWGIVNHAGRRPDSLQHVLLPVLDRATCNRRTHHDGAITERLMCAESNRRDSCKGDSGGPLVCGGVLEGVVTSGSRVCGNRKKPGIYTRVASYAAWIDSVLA

Structure (SMILES) | IC50 [µM]
Cc1cc2ncc(-c3ccc4c(c3)c(C(N)=O)nn4CC(=O)N3C[C@H](F)C[C@H]3C(=O)Nc3cccc(OC(F)(F)F)c3F)cn2n1 | < 1
CC(=O)c1nn(CC(=O)N2C[C@H](F)C[C@H]2C(=O)Nc2ccn(CCC(F)(F)F)n2)c2ccc(-c3cnc(C)nc3)cc12 | < 1
CC(=O)c1nn(CC(=O)N2[C@H](C(=O)NCc3cccc(Cl)c3F)C[C@@]3(C)C[C@@H]23)c2ccc(-c3cnc(C)nc3)cc12 | < 1
CC(=O)c1nn(CC(=O)N2C[C@H](F)C[C@H]2C(=O)NC[C@@H]2CC2(Cl)Cl)c2ccc(-c3cnc(C)nc3)cc12 | < 1
CC(=O)c1nn(CC(=O)N2C[C@H](F)C[C@H]2C(=O)Nc2cccc(OC(F)(F)F)c2C#N)c2ccc(-c3cnc(C)nc3)cc12 | < 1
CC(=O)c1nn(CC(=O)N2C[C@H](F)C[C@H]2C(=O)N[C@@H]2C[C@H]2c2ccccc2Cl)c2ccc(-c3cnc(C)nc3)cc12 | < 1
CC(=O)c1nn(CC(=O)N2C[C@H](F)C[C@H]2C(=O)Nc2cccnn2)c2ccc(-c3cnc4cc(C)nn4c3)cc12 | < 1
CC(=O)c1nn(CC(=O)N2C[C@H](F)C[C@H]2C(=O)NC[C@H]2CC2(Cl)Cl)c2ccc(-c3cnc(C)nc3)cc12 | < 1
CC(=O)c1nn(CC(=O)N2[C@@H]3C[C@@H]3C[C@H]2C(=O)NC/C(F)=C(/C)c2ccccc2)c2ccc(-c3cnc(C)nc3)cc12 | < 1
CC(=O)c1nn(CC(=O)N2C[C@H](F)C[C@H]2C(=O)Nc2cccc(Br)n2)c2ccc(-c3cnc([S+](C)[O-])nc3)cc12 (stereo partly specified) | < 1
CC(=O)c1nn(CC(=O)N2C[C@H](F)C[C@H]2C(=O)Nc2nn(CC(F)(F)F)cc2C)c2ccc(-c3cnc(C)nc3)cc12 | < 1
CC(=O)c1nn(CC(=O)N2C[C@H](F)C[C@H]2C(=O)N[C@H](C)[C@H]2CC2(Cl)Cl)c2ccc(-c3cnc(C)nc3)cc12 | < 1
CC(=O)c1nn(CC(=O)N2C[C@H](F)C[C@H]2C(=O)Nc2nc(Br)ccc2Cl)c2ccc(-c3cnc(C)nc3)cc12 | < 1
CC(=O)c1nn(CC(=O)N2[C@H](C(=O)NCC3CC3(Cl)Cl)C[C@@]3(C)C[C@@H]23)c2ccc(-c3cnc(C)nc3)cc12 (stereo partly specified) | < 1
CC(=O)c1nn(CC(=O)N2[C@@H]3C[C@@H]3C[C@H]2C(=O)Nc2cccc(Br)n2)c2ccc(-c3cnc(NC(C)C)nc3)cc12 | < 1
CC(=O)c1nn(CC(=O)N2C[C@H](F)C[C@H]2C(=O)Nc2cccc(C)n2)c2ccc(-c3cnc(C)nc3)cc12 | < 1

Structure (SMILES) | IC50 [µM]
CC(=O)c1nn(CC(=O)N2C[C@H](F)C[C@H]2C(=O)N[C@H]2C[C@@H]2c2ccccc2Cl)c2ccc(-c3cnc(C)nc3)cc12 | < 1
CC(=O)c1nn(CC(=O)N2C[C@H](F)C[C@H]2C(=O)Nc2cccc(OC(F)(F)F)n2)c2ccc(-c3cnc(N)nc3)cc12 | < 1
COc1ccc(Br)nc1NC(=O)[C@@H]1C[C@@H](F)CN1C(=O)Cn1nc(C(C)=O)c2cc(-c3cnc(C)nc3)ccc21 | < 1
CC(=O)c1nn(CC(=O)N2[C@H](C(=O)NCc3cccc(Cl)c3)C[C@@]3(C)C[C@@H]23)c2ccc(-c3cnc(C)nc3)cc12 | < 1
CC(=O)c1nn(CC(=O)N2[C@@H]3C[C@@H]3C[C@H]2C(=O)Nc2nc(Br)ccc2C)c2ccc(-c3cnc(C)nc3)cc12 | < 1
COCCNc1ncc(-c2ccc3c(c2)c(C(C)=O)cn3CC(=O)N2C[C@H](F)C[C@H]2C(=O)Nc2cccc(Br)n2)cn1 | < 1
CC(=O)c1nn(CC(=O)N2C[C@@](F)(CO)C[C@H]2C(=O)Nc2cccc(Br)n2)c2ccc(-c3cnc(C)nc3)cc12 | < 1
CC(=O)c1cn(CC(=O)N2C[C@H](F)C[C@H]2C(=O)Nc2cccc(Br)n2)c2ccc(-c3cnc4ccnn4c3)cc12 | < 1
CC(=O)c1nn(CC(=O)N2C[C@H](F)C[C@H]2C(=O)Nc2cccc(Br)n2)c2ccc(-c3nc4ccccc4[nH]3)cc12 | < 1
CC(=O)c1nn(CC(=O)N2C[C@H](F)C[C@H]2C(=O)Nc2cccc(Br)n2)c2ccc(-c3cnnc(C)c3)cc12 | < 1
CC(=O)c1nn(CC(=O)N2C[C@H](F)C[C@H]2C(=O)Nc2cccc(Br)c2)c2ccc(-c3cnc(C)nc3)cc12 | < 1
CC(=O)c1nn(CC(=O)N2C[C@H](F)C[C@H]2C(=O)Nc2ccc(F)c(Br)c2F)c2ccc(-c3cnc(C)nc3)cc12 | < 1
CCn1ccc(NC(=O)[C@@H]2C[C@@H](F)CN2C(=O)Cn2nc(C(C)=O)c3cc(-c4cnc(C)nc4)ccc32)n1 | < 1
COCCNc1ncc(-c2ccc3c(c2)c(C(C)=O)cn3CC(=O)N2[C@@H]3C[C@@H]3C[C@H]2C(=O)Nc2cccc(Br)n2)cn1 | < 1
CCOC(=O)Cc1ncc(-c2ccc3c(c2)c(C(C)=O)nn3CC(=O)N2C[C@H](F)C[C@H]2C(=O)Nc2nc(Br)ccc2C)cn1 | < 1

Source: ChEMBL document CHEMBL5726928, “Aryl, heteroaryl, and heterocyclic compounds for treatment of medical disorders” (2019)
